# “And” between values parts separate entries of the source, which are not always exact repeats. Equal values may be shown once. Read-outs that look alike come from different tables or passages of the source.
# Assays:
# Format in all cases: cell-based
# [1] = tested on: Mycobacterium tuberculosis strain 12; assay: Agar Dilution Test (MIC), strain 12 (Isoniacid S, Rifampicin S, Streptomycin S)
# [2] = tested on: Mycobacterium tuberculosis strain 15 (labor strain 137 kV); assay: Agar Dilution Test (MIC), strain 15 = labor strain 137 kV (Isoniacid S, Rifampicin S, Streptomycin S)
# [3] = tested on: Mycobacterium tuberculosis strain 1; assay: Agar Dilution Test (MIC), strain 1 (Isoniacid S, Rifampicin S, Streptomycin S); conditions: read-out: MIC against Mycobacterium tuberculosis of strain number 1
# [4] = tested on: Mycobacterium tuberculosis strain 14; assay: Agar Dilution Test (MIC), strain 14 (Isoniacid S, Rifampicin S, Streptomycin S)
# [5] = tested on: Mycobacterium tuberculosis strain 10; assay: Agar Dilution Test (MIC), strain 10 (Isoniacid S, Rifampicin S, Streptomycin S)
# [6] = tested on: Mycobacterium tuberculosis strain 6; assay: Agar Dilution Test (MIC), strain 6 (Isoniacid S, Rifampicin S, Streptomycin S)
# [7] = tested on: Mycobacterium tuberculosis strain 2; assay: Agar Dilution Test (MIC), strain 2 (Isoniacid S, Rifampicin S, Streptomycin S)
# [8] = tested on: Mycobacterium tuberculosis strain 8; assay: Agar Dilution Test (MIC), strain 8 (Isoniacid S, Rifampicin R, Streptomycin S)
# [9] = tested on: Mycobacterium tuberculosis strain 11; assay: Agar Dilution Test (MIC), strain 11 (Isoniacid S, Rifampicin S, Streptomycin S)
# [10] = tested on: Mycobacterium tuberculosis strain 5; assay: Agar Dilution Test (MIC), strain 5 (Isoniacid R, Rifampicin R, Streptomycin S)
# [11] = tested on: Mycobacterium tuberculosis strain 13; assay: Agar Dilution Test (MIC), strain 13 (Isoniacid S, Rifampicin S, Streptomycin S)
# [12] = tested on: Mycobacterium tuberculosis strain 7; assay: Agar Dilution Test (MIC), strain 7 (Isoniacid R, Rifampicin S, Streptomycin R)
# [13] = tested on: Mycobacterium tuberculosis strain 4; assay: Agar Dilution Test (MIC), strain 4 (Isoniacid R, Rifampicin R, Streptomycin R)
# [14] = tested on: Mycobacterium tuberculosis strain 3; assay: Agar Dilution Test (MIC), strain 3 (Isoniacid R, Rifampicin R, Streptomycin S)
# [15] = Mycobacterium tuberculosis, 1, 336 h
# [16] = Mycobacterium tuberculosis, 1, 504 h
# [17] = Mycobacterium tuberculosis, 1, 672 h
# [18] = Mycobacterium tuberculosis, 1, 840 h
# [19] = TABLE C; week 4*) tested after 31 days
# [20] = TABLE D; week 4*) tested after 31 days
# [21] = Mycobacterium tuberculosis, 1, 168 h
SMILES,MIC against Mycobacterium tuberculosis of strain number 12 [1],MIC against Mycobacterium tuberculosis of strain number 15 [2],MIC against Mycobacterium tuberculosis of strain number 6 [6],MIC against Mycobacterium tuberculosis of strain number 2 [7],"MIC [3, 16] [µg/mL]","MIC [3, 17] [µg/mL]","MIC [3, 18] [µg/mL]",MIC against Mycobacterium tuberculosis of strain number 4 [13],"MIC [3, 21] [µg/mL]",MIC against Mycobacterium tuberculosis of strain number 7 [12],MIC against Mycobacterium tuberculosis of strain number 3 [14] [µg/mL],further results
C=C[C@]1(C)C[C@@H](OC(=O)CSc2cccc(NC(=N)N)c2)[C@]2(C)C(C)CCC3(CCC(=O)C32)[C@@H](C)C1O (stereo partly drawn) [TC-6],1 µg/mL,0.5 µg/mL,,,,,,,,,,"MIC [3, 15]: 1 µg/mL"
C=C[C@]1(C)C[C@@H](OC(=O)CSC2CCCN(C(=O)C(N)C(C)C)C2)[C@]2(C)C(C)CCC3(CCC(=O)C32)[C@@H](C)C1O (stereo partly drawn) [TC-4],4 µg/mL and 2 µg/mL,4 µg/mL and 2 µg/mL,5 µg/mL and 4 µg/mL,5 µg/mL and 4 µg/mL,0.5,1,1,,,,,MIC against Mycobacterium tuberculosis of strain number 14 [4]: 4 µg/mL; MIC against Mycobacterium tuberculosis of strain number 10 [5]: 4 µg/mL and 2 µg/mL; MIC against Mycobacterium tuberculosis of strain number 8 [8]: 4 µg/mL and 2 µg/mL; MIC against Mycobacterium tuberculosis of strain number 11 [9]: 2 µg/mL; MIC against Mycobacterium tuberculosis of strain number 5 [10]: 2 µg/mL; MIC against Mycobacterium tuberculosis of strain number 13 [11]: 4 µg/mL and 2 µg/mL
C=C[C@]1(C)C[C@@H](OC(=O)CSC2CCNCC2O)[C@]2(C)C(C)CCC3(CCC(=O)C32)[C@@H](C)C1O (stereo partly drawn) [TC-10],16 µg/mL,4 µg/mL,,,,,,,,,,"MIC [3, 15]: 2 µg/mL"
"C=C[C@]1(C)C[C@@H](OC(=O)CSC(C)(C)CNC(=O)[C@H](N)C(C)C)[C@]2(C)[C@H](C)CC[C@]3(CCC(=O)[C@H]32)[C@@H](C)[C@@H]1O [TC-2, Valnemulin]",4 µg/mL,2 µg/mL,5 µg/mL and 4 µg/mL,,0.5,0.5,0.5,5 µg/mL and 8 µg/mL,,,,"MIC against Mycobacterium tuberculosis of strain number 7 [12, 19]: 8 µg/mL; MIC against Mycobacterium tuberculosis of strain number 14 [4]: 4 µg/mL; MIC against Mycobacterium tuberculosis of strain number 14 [4, 20]: 4 µg/mL; MIC against Mycobacterium tuberculosis of strain number 10 [5]: 4 µg/mL; MIC against Mycobacterium tuberculosis of strain number 10 [5, 20]: 4 µg/mL; MIC against Mycobacterium tuberculosis of strain number 12 [1, 20]: 4 µg/mL; MIC against Mycobacterium tuberculosis of strain number 6 [6, 19]: 4 µg/mL; MIC against Mycobacterium tuberculosis of strain number 15 [2, 20]: 4 µg/mL; MIC against Mycobacterium tuberculosis of strain number 2 [7, 19]: 4 µg/mL; MIC against Mycobacterium tuberculosis of strain number 4 [13, 19]: 8 µg/mL; MIC ([3]; Mycobacterium tuberculosis, 1, 744 h, TABLE C; week 4*) tested after 31 days): 0.5 µg/mL; MIC against Mycobacterium tuberculosis of strain number 8 [8]: 4 µg/mL; MIC against Mycobacterium tuberculosis of strain number 8 [8, 19]: 8 µg/mL; MIC against Mycobacterium tuberculosis of strain number 11 [9]: 2 µg/mL; MIC against Mycobacterium tuberculosis of strain number 11 [9, 20]: 4 µg/mL; MIC against Mycobacterium tuberculosis of strain number 5 [10]: 2 µg/mL; MIC against Mycobacterium tuberculosis of strain number 5 [10, 19]: 4 µg/mL; MIC against Mycobacterium tuberculosis of strain number 13 [11]: 4 µg/mL; MIC against Mycobacterium tuberculosis of strain number 13 [11, 20]: 8 µg/mL; MIC against Mycobacterium tuberculosis of strain number 3 [14, 19]: 2 µg/mL"
C=C[C@]1(C)C[C@@H](OC(=O)CSC2CCCC(=NO)C2)[C@]2(C)C(C)CCC3(CCC(=O)C32)[C@@H](C)C1O (stereo partly drawn) [TC-9],32 µg/mL,32 µg/mL,,,,,,,8,,,
C=C[C@]1(C)C[C@@H](OC(=O)CSC(C)(C)C(N)C(=O)N2CCN(C)CC2)[C@]2(C)C(C)CCC3(CCC(=O)C32)[C@@H](C)C1O (stereo partly drawn) [TC-8],32 µg/mL,32 µg/mL,,,,,,,2,,,
C=C[C@]1(C)C[C@@H](OC(=O)CSc2cccc(NC(=O)C3CCCCN3)c2)[C@]2(C)C(C)CCC3(CCC(=O)C32)[C@@H](C)C1O (stereo partly drawn) [TC-3],,,5 µg/mL and 10 µg/mL,5 µg/mL,1,1,1,,,20 µg/mL,5,
"C=C[C@]1(C)C[C@@H](OC(=O)CSCCN(CC)CC)[C@]2(C)C(C)CC[C@]3(CCC(=O)C32)[C@@H](C)[C@@H]1O (stereo partly drawn) [TC-1, 14-Desoxy-14[(2-diethylaminoethyl)mercaptoacetoxy]mutilin]",,,10 µg/mL,5 µg/mL,5,5,5,5 µg/mL and 10 µg/mL,,10 µg/mL and 20 µg/mL,5,
C=C[C@]1(C)C[C@@H](OC(=O)CSC(C)(C)C(N)C(=O)NC)[C@]2(C)C(C)CCC3(CCC(=O)C32)[C@@H](C)C1O (stereo partly drawn) [TC-7],32 µg/mL,32 µg/mL,,,,,,,2,,,
C=C[C@]1(C)C[C@@H](OC(=O)CSc2cccc(NC(=O)C(N)CCCNC(=N)N)c2)[C@]2(C)C(C)CCC3(CCC(=O)C32)[C@@H](C)C1O (stereo partly drawn) [TC-5],,,5 µg/mL and 10 µg/mL,5 µg/mL,1,5,5,5 µg/mL and 10 µg/mL,,5 µg/mL and 10 µg/mL,5,
